Data: US20230158064A1 (priority 2020, published 2023)

Legend:
COVID-19 = experiment: Example 1: randomized open-label study of pulsed iNO versus standard of care in COVID-19, initial data; format: in vivo; details: three COVID-19 patients that completed the regimen
Protocol: This example discloses a randomized, open-label study to assess the efficacy and safety of pulsed iNO compared to standard of care (SOC) in subjects with COVID-19 who are hospitalized and require supplemental oxygen without assisted ventilation. Up to 500 subjects are randomized to receive either (a) iNO 125 mcg/kg IBW/hr for at least 8 hours and up to 24 hours daily for 3 days to 14 days or until resolution or discharge at the discretion of the Investigator, or (b) standard of care. No placebo arm is used. Subjects are followed through Day 28 to assess their clinical status. The primary objective in this study is to verify the efficacy of iNO in subjects with COVID-19. The secondary objective in this study is to evaluate the safety of iNO in subjects with COVID-19.
Outcomes are assessed using an outcome scale assessed 14 days after randomization.
Prior to receiving treatment with iNO, subjects were screened to confirm eligibility. […] Subjects in the iNO group are treated by means of an INOpulse device using a readily available cannula on site.
At day 0 of the study, subjects testing positive for COVID-19 are evaluated for vital signs, blood chemistry, and a chest x-ray or CT scan, and an overall physical exam is performed. Daily vital signs, oxygen measurements (pulse oximetry), methemoglobin levels, and adverse events are assessed through the entire course of treatment. […]

SARS = details: human, in vivo; cited from earlier work
COVID-19 (SARS-CoV-2) = experiment: Example 2: INOpulse (pulsed iNO) expanded access series in hospitalized patients with hypoxemia due to COVID-19; format: in vivo; details: for ratio of oxygen saturation to fraction of inspired oxygen (SpO2/FiO2), median: FiO2 estimated from oxygen flow
[1] = test system: severe acute respiratory syndrome-related coronavirus (SARS-CoV); details: cited from earlier work
[2] = test system: cells infected with SARS-CoV; details: cited from earlier work
[3] = one subject (CVD19-029), higher dose 250 mcg/kg IBW/hour (approximately 40 ppm)
[4] = patients that completed iNO treatment and were discharged

[N]=O [iNO, nitric oxide]
need for mechanical ventilation (COVID-19): avoid the need for mechanical ventilation
oxygenation (COVID-19; iNO 125 mcg/kg IBW/hr): improved oxygenation
arterial oxygenation (SARS): improvements in arterial oxygenation
chest radiography (SARS): reduction in density of lung infiltrates
supplemental oxygen and need for ventilatory support (SARS): reduction in supplemental oxygen and need for ventilatory support
time to hospital discharge (SARS): shorter time to hospital discharge
Oxygen Saturation (SpO2), Median (COVID-19 (SARS-CoV-2); Discharge): 95%
Oxygen Therapy (L/min), Median (COVID-19 (SARS-CoV-2); Discharge, n=20): 0.0 L/min
8 Point Ordinal Scale, Median (COVID-19 (SARS-CoV-2); Discharge, scale of Table A): 7
Oxygen Saturation (SpO2), Median (COVID-19 (SARS-CoV-2); Post-iNO): 95%
8 Point Ordinal Scale, Median (COVID-19 (SARS-CoV-2); Post-iNO (first day off iNO), scale of Table A): 4
Oxygen Therapy (L/min), Median (COVID-19 (SARS-CoV-2); Post-iNO, n=22): 2.0 L/min
ratio of oxygen saturation to fraction of inspired oxygen (SpO2/FiO2), median (COVID-19 (SARS-CoV-2); baseline (start of iNO)): 229
Oxygen Saturation (SpO2), Median (COVID-19 (SARS-CoV-2); iNO-End): 95%
Oxygen Therapy (L/min), Median (COVID-19 (SARS-CoV-2); iNO-End, n=22): 3.3 L/min
8 Point Ordinal Scale, Median (COVID-19 (SARS-CoV-2); iNO-End, scale of Table A): 4
Oxygen Therapy (L/min), Median (COVID-19 (SARS-CoV-2); iNO-Start (baseline), n=24, iNO 125 mcg/kg IBW/hour): 5.0 L/min
Oxygen Saturation (SpO2), Median (COVID-19 (SARS-CoV-2); iNO-Start (baseline), pulse oximetry): 94%
8 Point Ordinal Scale, Median (COVID-19 (SARS-CoV-2); iNO-Start, scale of Table A (1 death to 8 not hospitalized, no limitations)): 4
patients discharged from the hospital at the time of report (COVID-19 (SARS-CoV-2); of 24 COVID-19 positive patients): 19 patients
deaths (COVID-19 (SARS-CoV-2); of 24 patients, elderly person with severe comorbidities, iNO for less than 24 hours): one
ratio of oxygen saturation to fraction of inspired oxygen (SpO2/FiO2), median (COVID-19 (SARS-CoV-2); on completion of iNO): 286
clinical response (COVID-19 (SARS-CoV-2); [3]): responded well and was discharged home without supplemental oxygen
tolerability (COVID-19 (SARS-CoV-2); [3]): well tolerated
Time to Discharge from hospitalization (median, range) (COVID-19 (SARS-CoV-2); [4]): 10 (6-23) Days
Time to Discharge from start of iNO (median, range) (COVID-19 (SARS-CoV-2); [4]): 6 (3-14) Days
ratio of oxygen saturation to fraction of inspired oxygen (SpO2/FiO2), median (COVID-19 (SARS-CoV-2); period after iNO): 346
replication of SARS-CoV [1]: inhibits the replication
cellular survival of cells infected with SARS-CoV [2]: improves cellular survival
